Format in all cases: biochemical
One test deals with Tyk2 (Homo sapiens, UniProt P29597). Nature of the test: JAK kinase inhibition assay (EZ Reader, peptide substrate phosphorylation) - Tyk2. The settings on record: Tyk2 kinase 1 nM; 8 concentration points, max 10 μM. In outline: (§1)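 Microfluidic mobility-shift detection of fluorescent peptide substrate phosphorylation, with JAK1 at 20 nM and JAK2, JAK3 and Tyk2 each at 1 nM final, in 20 mM HEPES pH 7.4, 10 mM MgCl2, 1 mM DTT. Reactions run at room temperature to 20–30% conversion, then EDTA-stopped. Compounds tested at 8 three-fold dilutions from 10 μM top final; IC50 from conversion curves.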

A further test concerns the target JAK1 (Homo sapiens, UniProt P23458). Kind of test: JAK kinase inhibition assay (EZ Reader, peptide substrate phosphorylation) - JAK1. Particulars: JAK1 kinase 20 nM; 8 concentration points, max 10 μM. In outline: as §1
For a further test, the target named is JAK2 (Homo sapiens, UniProt O60674). Kind of test: JAK kinase inhibition assay (EZ Reader, peptide substrate phosphorylation) - JAK2. Particulars: JAK2 kinase 1 nM; 8 concentration points, max 10 μM. The source says:
(§2) Assay for Identifying Inhibitory Effects of Compounds on JAK Kinases
(§3) Janus kinases (JAK), including JAK1, JAK2, JAK3 and Tyk2, transduce a cytokine-mediated signal through a JAK-STAT pathway. The kinases are 120-140 kDa in size and have 7 determined homology regions: JH1 to JH7. JH1 is an important region for enzymatic activity and has typical characteristics of tyrosine kinases. Phosphorylation of tyrosine leads to a change in the conformation of JAK protein, thereby promoting binding of substrate. The JAK-STAT system includes three main parts: receptors penetrating a cell membrane, Janus kinases binding to the receptors, and signal transducers and activators of transcription (STAT) for transmitting signals to a nucleus and DNA. When cytokines bind to receptors, JAK phosphorylates the receptors and attracts STAT proteins. The STAT proteins are also phosphorylated and combined with one another to form dimers. The dimers enter the nucleus and bind to DNA, thereby leading to gene transcription.
(§4) EZ Reader from PerkinElmer can be used to detect the phosphorylation of polypeptide substrates catalyzed by kinases. The device is based on microfluidic techniques, and can directly detect fluorescently labeled substrates and products. The separation step is achieved by controlling the pressure and electric field strength in the microfluidic chip. In kinase assays, a product conversion ratio is usually controlled to be 20-30%. A biological test is used to identify inhibitory effects of compounds on JAKs.
(§5) Compound powder was dissolved in DMSO, sealed and stored in a freezer under −20° C. The in-house compound Ref1 was used as a positive control for JAK1, JAK2 and Tyk2 tests, and Ref2 was used as a positive control for JAK3 tests.
(§6) S2.8. Assay buffer: 20 mM HEPES buffer, pH 7.4, 10 mM magnesium chloride, 0.01% bovine serum albumin BSA, 0.0005% Tween-20 and 1 mM dithiothreitol solution.
(§7) S2.9. Stop buffer: 180 mM HEPES buffer, 20 mM ethylenediaminetetraacetic acid and 0.2% coating reagent 3.
(§8) S2.10. Separation buffer: 100 mM HEPES buffer, 10 mM ethylenediaminetetraacetic acid, 0.0005% Tween 20, 0.1% coating reagent 3 and 1% dimethyl sulfoxide.
The compound was dissolved in dimethyl sulfoxide and diluted to 10 mM concentration, a certain volume of solution was taken and diluted to 0.6 mM concentration, 10 μL of the 0.6 mM dilution was added to a 384-well microplate, and then was diluted 3-fold with a total of 8 concentration points.
Positive control (HPE1): Ref1, final concentration: 10 μM […]
(§9) Negative control (ZPE): DMSO, final content: 1.6%
(§10) Compounds: maximum final concentration: 10 μM; 3-fold dilution, 8 concentration points and 2 duplicates.
(§11) S4.1. 250 nL of the compound was added to each well of the assay microplate by using ECHO, and centrifuged at 1000 rpm for 1 minute.
(§12) S4.2. 5 μL of the assay buffer was added and agitated for a few seconds to fully dissolve the compound.
(§13) S4.3. 5 μL of 3× substrate solution and 5 μL of 3× kinase solution were added and centrifuged at 800 rpm for 1 minute.
(§14) S4.4. Final concentrations of JAK1, JAK2, JAK3 and Tyk2 kinases in the reaction system were 20 nM, 1 nM, 1 nM and 1 nM respectively.
(§15) S4.5. Incubation at room temperature, where kinases had time differences, and different batches of kinases had time differences.
(§16) S4.6. When 20%-30% of the reaction completed, 15 μL of stop buffer was added to stop the reaction, and centrifuged at 1000 rpm for 2 minutes.
(§17) S4.7. The microplates were placed on EZ Reader for reading.
(§18) S4.8. Readings on EZ Reader were calculated by using a peak height, where product conversion ratio (%)=product/(product+substrate)*100.
(§19) 5. Data Processing: IC50 calculation
(§20) A graphing software Xlfit was used to form a concentration curve of the test compound, and an IC50 value was calculated.
(§21) “A” means “≥10 μM”; “B” means “≥1 μM and <10 μM”; “C” means “≥0.1 μM and <1 μM”; and “D” means “<0.1 μM”.

For a further test, the target named is T1, JAK3 (Homo sapiens, UniProt P52333).
T1 sequence (P52333 1-1124): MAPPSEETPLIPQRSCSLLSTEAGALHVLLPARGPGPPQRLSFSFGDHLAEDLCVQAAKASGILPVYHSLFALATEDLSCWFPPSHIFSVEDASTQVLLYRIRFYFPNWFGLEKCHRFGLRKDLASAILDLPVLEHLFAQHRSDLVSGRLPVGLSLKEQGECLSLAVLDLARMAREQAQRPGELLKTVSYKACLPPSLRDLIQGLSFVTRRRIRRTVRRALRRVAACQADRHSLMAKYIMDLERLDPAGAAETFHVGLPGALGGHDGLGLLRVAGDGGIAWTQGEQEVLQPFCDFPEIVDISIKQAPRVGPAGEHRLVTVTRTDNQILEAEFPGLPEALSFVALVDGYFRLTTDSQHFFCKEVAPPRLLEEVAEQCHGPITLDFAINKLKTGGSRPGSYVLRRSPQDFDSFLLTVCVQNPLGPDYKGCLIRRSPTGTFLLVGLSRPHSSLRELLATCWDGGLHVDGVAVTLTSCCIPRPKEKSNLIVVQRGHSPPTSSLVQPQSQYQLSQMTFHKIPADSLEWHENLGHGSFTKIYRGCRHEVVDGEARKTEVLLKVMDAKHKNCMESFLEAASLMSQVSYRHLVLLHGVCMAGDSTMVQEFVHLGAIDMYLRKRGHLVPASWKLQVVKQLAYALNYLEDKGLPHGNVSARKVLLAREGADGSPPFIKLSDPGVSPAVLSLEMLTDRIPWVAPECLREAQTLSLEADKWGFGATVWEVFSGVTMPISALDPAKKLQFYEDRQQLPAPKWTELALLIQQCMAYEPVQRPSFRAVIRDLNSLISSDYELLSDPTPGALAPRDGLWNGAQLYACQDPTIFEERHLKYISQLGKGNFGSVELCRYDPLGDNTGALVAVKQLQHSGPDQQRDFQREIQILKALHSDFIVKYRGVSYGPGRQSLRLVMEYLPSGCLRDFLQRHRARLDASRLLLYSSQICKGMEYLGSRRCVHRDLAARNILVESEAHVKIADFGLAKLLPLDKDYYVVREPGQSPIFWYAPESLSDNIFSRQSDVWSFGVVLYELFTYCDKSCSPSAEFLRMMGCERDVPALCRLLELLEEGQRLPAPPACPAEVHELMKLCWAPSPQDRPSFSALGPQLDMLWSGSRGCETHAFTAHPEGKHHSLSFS
Nature of the test: JAK kinase inhibition assay (EZ Reader, peptide substrate phosphorylation) - JAK3. The settings on record: JAK3 kinase 1 nM; 8 concentration points, max 10 μM.
Source text: as §2, §3, §4, §5, §6, §7, §8
The compound was dissolved in dimethyl sulfoxide and diluted to 10 mM concentration, a certain volume of solution was taken and diluted to 0.6 mM concentration, 10 μL of the 0.6 mM dilution was added to a 384-well microplate, and then was diluted 3-fold with a total of 8 concentration points. […]
Positive control (HPE1): Ref2, final concentration: 10 μM
as §9, §10, §11, §12, §13, §14, §15, §16, §17, §18, §19, §20, §21

Sequence of JAK2 (O60674 whole entry): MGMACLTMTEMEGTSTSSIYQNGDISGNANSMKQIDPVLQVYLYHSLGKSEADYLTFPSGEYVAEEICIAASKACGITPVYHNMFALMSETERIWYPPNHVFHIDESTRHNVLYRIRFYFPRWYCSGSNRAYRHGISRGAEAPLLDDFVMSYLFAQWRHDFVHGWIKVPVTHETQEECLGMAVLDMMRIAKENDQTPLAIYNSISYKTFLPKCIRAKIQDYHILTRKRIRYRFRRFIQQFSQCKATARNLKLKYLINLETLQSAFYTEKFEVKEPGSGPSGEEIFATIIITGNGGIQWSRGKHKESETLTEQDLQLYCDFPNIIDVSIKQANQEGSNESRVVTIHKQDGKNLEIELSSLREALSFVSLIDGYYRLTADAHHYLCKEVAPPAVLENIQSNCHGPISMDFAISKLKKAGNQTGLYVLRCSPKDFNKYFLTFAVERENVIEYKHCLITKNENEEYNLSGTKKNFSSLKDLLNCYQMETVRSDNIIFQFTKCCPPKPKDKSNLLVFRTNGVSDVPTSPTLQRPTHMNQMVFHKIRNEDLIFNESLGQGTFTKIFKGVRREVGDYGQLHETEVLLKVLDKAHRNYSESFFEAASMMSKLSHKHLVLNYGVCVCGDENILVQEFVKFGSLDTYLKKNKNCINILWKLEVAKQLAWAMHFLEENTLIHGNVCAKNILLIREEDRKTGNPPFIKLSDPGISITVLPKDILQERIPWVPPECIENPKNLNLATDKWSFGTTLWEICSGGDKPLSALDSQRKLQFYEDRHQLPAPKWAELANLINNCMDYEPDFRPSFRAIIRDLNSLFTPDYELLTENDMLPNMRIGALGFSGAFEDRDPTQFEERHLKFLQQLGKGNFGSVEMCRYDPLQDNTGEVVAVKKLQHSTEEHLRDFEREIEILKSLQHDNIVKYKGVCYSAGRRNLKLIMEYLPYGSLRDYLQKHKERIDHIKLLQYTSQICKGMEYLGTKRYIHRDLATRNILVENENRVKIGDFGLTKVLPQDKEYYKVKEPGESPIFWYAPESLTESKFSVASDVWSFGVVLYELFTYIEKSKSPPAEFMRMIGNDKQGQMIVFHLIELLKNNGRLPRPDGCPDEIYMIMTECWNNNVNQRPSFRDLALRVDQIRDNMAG
Sequence of JAK1 (P23458 whole entry): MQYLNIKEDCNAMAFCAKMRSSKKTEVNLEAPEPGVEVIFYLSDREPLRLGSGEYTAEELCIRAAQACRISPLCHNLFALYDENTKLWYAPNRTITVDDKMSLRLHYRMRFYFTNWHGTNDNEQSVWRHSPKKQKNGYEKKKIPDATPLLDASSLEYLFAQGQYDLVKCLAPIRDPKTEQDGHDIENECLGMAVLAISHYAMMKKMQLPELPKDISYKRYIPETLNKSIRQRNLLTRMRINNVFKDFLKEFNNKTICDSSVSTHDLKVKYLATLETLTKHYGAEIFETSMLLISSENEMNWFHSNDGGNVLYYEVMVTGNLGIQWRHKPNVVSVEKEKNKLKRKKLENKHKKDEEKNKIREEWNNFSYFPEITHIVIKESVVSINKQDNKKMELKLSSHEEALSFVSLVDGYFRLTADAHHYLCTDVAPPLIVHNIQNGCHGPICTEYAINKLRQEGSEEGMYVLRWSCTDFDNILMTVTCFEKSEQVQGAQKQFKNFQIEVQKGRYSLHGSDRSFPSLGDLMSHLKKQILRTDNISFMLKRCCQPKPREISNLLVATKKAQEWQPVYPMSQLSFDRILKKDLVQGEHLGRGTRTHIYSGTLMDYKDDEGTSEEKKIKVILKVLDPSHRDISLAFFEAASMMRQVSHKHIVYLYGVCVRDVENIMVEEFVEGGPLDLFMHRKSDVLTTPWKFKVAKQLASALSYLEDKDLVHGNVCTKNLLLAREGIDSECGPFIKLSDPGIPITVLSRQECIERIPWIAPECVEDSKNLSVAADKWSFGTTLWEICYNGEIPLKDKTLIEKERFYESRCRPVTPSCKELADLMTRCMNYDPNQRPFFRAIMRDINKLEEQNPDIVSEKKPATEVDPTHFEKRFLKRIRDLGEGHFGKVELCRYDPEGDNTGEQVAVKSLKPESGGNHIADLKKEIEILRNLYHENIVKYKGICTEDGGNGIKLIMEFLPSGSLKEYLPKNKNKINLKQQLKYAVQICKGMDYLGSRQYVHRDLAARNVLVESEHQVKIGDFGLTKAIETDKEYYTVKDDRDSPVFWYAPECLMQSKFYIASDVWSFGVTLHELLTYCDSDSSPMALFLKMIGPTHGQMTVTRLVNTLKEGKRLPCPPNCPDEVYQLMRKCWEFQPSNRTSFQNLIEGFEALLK
Sequence of Tyk2 (P29597 whole entry): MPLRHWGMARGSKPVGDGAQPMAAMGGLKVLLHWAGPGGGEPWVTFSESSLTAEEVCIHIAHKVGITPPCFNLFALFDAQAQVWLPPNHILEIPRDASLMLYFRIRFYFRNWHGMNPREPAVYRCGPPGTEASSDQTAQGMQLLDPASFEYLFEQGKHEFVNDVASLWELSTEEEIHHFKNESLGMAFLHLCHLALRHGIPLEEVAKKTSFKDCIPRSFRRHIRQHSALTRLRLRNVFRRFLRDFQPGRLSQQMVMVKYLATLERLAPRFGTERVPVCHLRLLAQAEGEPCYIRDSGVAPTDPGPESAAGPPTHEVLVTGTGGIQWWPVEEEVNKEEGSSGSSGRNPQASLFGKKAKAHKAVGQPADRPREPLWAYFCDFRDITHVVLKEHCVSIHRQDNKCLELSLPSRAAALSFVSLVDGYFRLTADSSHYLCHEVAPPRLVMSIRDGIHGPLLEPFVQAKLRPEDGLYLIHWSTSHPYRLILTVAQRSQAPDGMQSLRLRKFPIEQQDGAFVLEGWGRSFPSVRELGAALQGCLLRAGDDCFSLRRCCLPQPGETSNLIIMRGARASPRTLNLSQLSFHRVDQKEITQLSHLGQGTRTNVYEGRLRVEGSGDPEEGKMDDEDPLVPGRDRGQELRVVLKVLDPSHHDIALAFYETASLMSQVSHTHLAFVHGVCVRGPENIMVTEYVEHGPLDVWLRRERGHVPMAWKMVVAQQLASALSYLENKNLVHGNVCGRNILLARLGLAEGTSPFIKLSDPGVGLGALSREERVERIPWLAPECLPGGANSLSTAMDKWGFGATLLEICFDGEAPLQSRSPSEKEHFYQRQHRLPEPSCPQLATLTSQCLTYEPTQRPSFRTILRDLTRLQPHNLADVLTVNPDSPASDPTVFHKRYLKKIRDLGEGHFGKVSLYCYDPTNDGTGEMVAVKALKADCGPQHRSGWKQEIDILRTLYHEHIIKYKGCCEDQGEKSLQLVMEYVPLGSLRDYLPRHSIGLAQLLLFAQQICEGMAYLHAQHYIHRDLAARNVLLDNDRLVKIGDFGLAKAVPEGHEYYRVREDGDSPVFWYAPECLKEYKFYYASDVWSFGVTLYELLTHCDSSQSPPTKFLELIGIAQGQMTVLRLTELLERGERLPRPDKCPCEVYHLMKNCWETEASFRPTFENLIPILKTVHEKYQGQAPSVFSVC

`Cn1cc(Nc2nccc(-c3ccc(NC(=O)C4CC4(F)F)nc3)n2)cn1` (stereo not shown) [TDM-180822, 2,2-difluoro-N-(5-(2-((1-methyl-1H-pyrazol-4-yl)amino)pyrimidin-4-yl)pyridin-2-yl)cyclopropane-1-carboxamide]: the IC50 is less than 0.1 µM at Tyk2, less than 0.1 µM at JAK1, less than 0.1 µM against JAK2 and 0.1 to 1 µM at JAK3.

`Cn1cc(Nc2nccc(-c3ccc(NC(=O)C4CCC4)nc3)n2)cn1` [TDM-180823, N-(5-(2-((1-methyl-1H-pyrazol-4-yl)amino)pyrimidin-4-yl)pyridin-2-yl)cyclobutanemethyl]: the IC50 against Tyk2 fell in the range of 1 to 10 µM; against JAK1, 0.1 to 1 µM; against JAK2, 1 to 10 µM; against JAK3, 1 to 10 µM.

As for `CN1CCN(c2ccc(-c3ccnc(Nc4cnn(C)c4)n3)cc2)CC1` [TDM-180828], the IC50 was 1 to 10 µM on Tyk2, 1 to 10 µM against JAK1, 1 to 10 µM against JAK2 and no less than 10 µM against JAK3.

For the compound `Cn1cc(Nc2nccc(-c3ccc(NC(=O)CC(F)(F)F)nc3)n2)cn1` [TDM-180830, 3,3,3-trifluoro-N-(5-(2-((1-methyl-1H-pyrazol-4-yl)amino)pyrimidin-4-yl)pyridin-2-yl)propanamide], the half-maximal inhibitory concentration (IC50) against Tyk2 is 0.1 to 1 µM; on JAK1, less than 0.1 µM; on JAK2, 0.1 to 1 µM; against JAK3, 0.1 to 1 µM.

As for `CCCCS(=O)(=O)Nc1ccc(-c2ccnc(Nc3cnn(C)c3)n2)cc1` [TDM-180832, N-(4-(2-((1-methyl-1H-pyrazol-4-yl)amino)pyrimidin-4-yl)phenyl)butane-1-sulfonamide], the IC50 against Tyk2 was in the range of 0.1 to 1 µM; at JAK1 it was 0.1 to 1 µM; against JAK2, 0.1 to 1 µM; against JAK3 it was 1 to 10 µM.

For the compound `Cn1cc(Nc2nccc(-c3ccc(NC(=O)CC#N)nc3)n2)cn1` [TDM-180833, 2-cyano-N-(5-(2-((1-methyl-1H-pyrazol-4-yl)amino)pyrimidin-4-yl)pyridin-2-yl)acetamide], the IC50 at Tyk2 fell in the range of 0.1 to 1 µM; against JAK1 it was 0.1 to 1 µM; against JAK2 it was 0.1 to 1 µM; on JAK3 it was 1 to 10 µM.

As to `CCOCCS(=O)(=O)Nc1ccc(-c2ccnc(Nc3cnn(C)c3)n2)cc1` [TDM-180834, 2-ethoxyl-N-(4-(2-((1-methyl-1H-pyrazol-4-yl)amino)pyrimidin-4-yl)phenyl)ethyl-1-sulfonamide], the IC50 at Tyk2 is 0.1 to 1 µM; against JAK1, less than 0.1 µM; on JAK2, less than 0.1 µM; against JAK3 it was 1 to 10 µM.

For `C=CCS(=O)(=O)Nc1ccc(-c2ccnc(Nc3cnn(C)c3)n2)cc1` [TDM-180844, N-(4-(2-((1-methyl-1H-pyrazol-4-yl)amino)pyrimidin-4-yl)phenyl)prop-2-ene-1-sulfonamide], the IC50 lay within 0.1 to 1 µM at Tyk2, 0.1 to 1 µM at JAK1, 0.1 to 1 µM against JAK2 and 1 to 10 µM against JAK3.

On to `Cn1cc(Nc2nccc(-c3ccc(NC(=O)C(F)F)nc3)n2)cn1` [TDM-180849, 2,2-difluoro-N-(5-(2-((1-methyl-1H-pyrazol-4-yl)amino)pyrimidin-4-yl)pyridin-2-yl)acetamide], for which the IC50 lay within 0.1 to 1 µM at Tyk2, 0.1 to 1 µM at JAK1, 0.1 to 1 µM against JAK2 and 1 to 10 µM against JAK3.

Turning to `Cn1cc(Nc2nccc(-c3ccc(NS(=O)(=O)CCC(F)(F)F)cc3)n2)cn1` [TDM-180850, 3,3,3-trifluoro-N-(4-(2-((1-methyl-1H-pyrazol-4-yl)amino)pyrimidin-4-yl)phenyl)propyl-1-sulfonamide], the IC50 at Tyk2 is 0.1 to 1 µM; against JAK1, 0.1 to 1 µM; against JAK2, 0.1 to 1 µM; at JAK3 it was no less than 10 µM.

The IC50 is the concentration needed to halve the response being measured.

The values are drawn from patent publication US20240174648A1, “Small Molecule Compound” (Technoderma Medicines Pte Ltd, priority 2019, published 2024).
